“Also recorded” adds a separate entry of the source.
Test system: cerebral vein of Galen from NonP rats
Assay: BBB permeability (hydraulic conductivity, Lp) in isolated cerebral veins perfused with human plasma
Design: species or system rat
Method: BBB permeability measurements. The first set of experiments was performed to determine the effects of circulating factors in plasma from EPE and LPE women on the BBB permeability compared to NP women and NonP women. We measured Lp, the critical transport parameter that relates water flux to hydrostatic pressure, in isolated cerebral veins from nonpregnant female rats after perfusing with plasma from the 4 groups of women, as described previously (52). This method of measuring BBB permeability was specifically developed to have a direct measure of water permeability and has been successfully used in several previous studies (13, 52-54).
The vein of Galen was used for all permeability experiments as representation of the BBB because this vein has BBB properties and is where BBB disruption occurs first during acute hypertension (55). […] After this incubation period with plasma, intravascular pressure was increased to 25±0.1 mmHg and the drop in pressure due to transvascular filtration of water out of the vessel in response to hydrostatic pressure was measured for 40 minutes. […] After flux was determined, transvascular filtration per surface area (Jv/S) and Lp were calculated by normalizing flux to the surface area and oncotic pressure of the plasma perfusate that was determined by a commercially available oncometer. […]

Structure (SMILES): C[n+]1ccc(-c2c3nc(c(-c4cc[n+](C)cc4)c4ccc([n-]4)c(-c4cc[n+](C)cc4)c4nc(c(-c5cc[n+](C)cc5)c5ccc2[n-]5)C=C4)C=C3)cc1.[Cl-].[Cl-].[Cl-].[Cl-].[Cl-].[Fe+3] [FeTMPyP, Fe(III)tetrakis (1-methyl-4-pyridyl) porphyrin pentachlorideporphyrin pentachloride]
- effect on BBB permeability (Lp at 36 minutes) induced by plasma from EPE women (EPE plasma plus 50 μM FeTMPyP): significantly inhibited BBB permeability; also recorded: inhibited the BBB permeability induced by plasma from EPE women
- effect on BBB permeability (Lp) induced by exogenous oxLDL (NonP plasma plus 3.5 μg/ml oxLDL and 50 μM FeTMPyP): inhibited the BBB permeability induced by 3.5 μg/ml exogenous oxLDL
